How the values were obtained:
PTCL-NOS = assay: Clinical evaluation in patients with relapsed or refractory peripheral T-cell lymphoma (PTCL-NOS patient); type: in vivo, human; conditions: Patient 3, PTCL-NOS, cycle 1, oral capsules T.I.W., preliminary data
Description: (§1) A study of 4,4,4-Trifluoro-N-[(1S)-2-[[(7S)-5-(2-hydroxyethyl)-6-oxo-7H-pyrido[2,3-d][3]benzazepin-7-yl]amino]-1-methyl-2-oxo-ethyl]butanamide hydrate in patients with advanced or metastatic cancer.
This study is a multicenter, nonrandomized, open-label, dose-escalation study followed by cohort expansion of oral dosed 4,4,4-trifluoro-N-[(1S)-2-[[(7S)-5-(2-hydroxyethyl)-6-oxo-7H-pyrido[2,3-d][3]benzazepin-7-yl]amino]-1-methyl-2-oxo-ethyl]butanamide hydrate in outpatients with advanced or metastatic cancer. […]
(§2) Efficacy: Efficacy will be assessed using Response Evaluation Criteria in Solid Tumors (RECIST) v1.1 or using the Cheson et al., J. Clin. Oncol., 2007, 25(5): 579-586, response criteria for lymphoma. Each patient will be assessed by 1 or more of the following radiologic tests for tumor measurement: X-ray computerized tomography (CT) scan; magnetic resonance imaging (MRI); chest X-ray; positron emission tomography (PET) scan; dynamic contrast enhanced-magnetic resonance imaging (DCE-MRI); PET/CT imaging Standardized Uptake Values (SUVMAX); Dynamic Contrast-Enhanced Ultrasonography (DCE-US).
Each patient's full extent of disease will also be assessed with: applicable tumor measurement by RECIST 1.1 (Eisenhauer et al., Eur J Cancer. 2009, 45(2): 228-247); Cheson et al., J. Clin. Oncol., 2007, 25(5): 579-586; and Choi et al., J Clin Oncol. […]

AITL = assay: Clinical evaluation in patients with relapsed or refractory peripheral T-cell lymphoma (AITL patients); type: in vivo, human; conditions: cycle 1, oral capsules T.I.W., preliminary data
Description: as §1
This study is a multicenter, nonrandomized, open-label, dose-escalation study followed by cohort expansion of oral dosed 4,4,4-trifluoro-N-[(1S)-2-[[(7S)-5-(2-hydroxyethyl)-6-oxo-7H-pyrido[2,3-d][3]benzazepin-7-yl]amino]-1-methyl-2-oxo-ethyl]butanamide hydrate in outpatients with advanced or metastatic cancer.
Cohort expansion of oral 4,4,4-trifluoro-N-[(1S)-2-[[(7S)-5-(2-hydroxyethyl)-6-oxo-7H-pyrido[2,3-d][3]benzazepin-7-yl]amino]-1-methyl-2-oxo-ethyl]butanamide hydrate in outpatients with advanced or metastatic cancer. Patients will be entered based on screened molecular alterations related to the Notch pathway. Patients initially dosed with 75 mg/dose administered T.I.W. are dose-reduced to 50 mg/dose administered T.I.W. […]
as §2
Each patient's full extent of disease will also be assessed with: applicable tumor measurement by RECIST 1.1 (Eisenhauer et al., Eur J Cancer. 2009, 45(2): 228-247); Cheson et al., J. Clin. Oncol., 2007, 25(5): 579-586; and Choi et al., J Clin Oncol. […] To confirm objective responses, all lesions should be radiologically assessed, and the same radiologic method used for the initial response determination should be repeated at least 4 weeks following the initial observation of an objective response, using the sample method that was used at baseline. […]

[1] = Atropisomer equilibrium in solution by 1H NMR and LC-MS; type: physicochemical; conditions: ambient temperature, after 24 hours
Procedure: In aqueous solutions, 8-9% of atropisomer 2 (minor atropisomer) is detected by ^1H NMR and LC-MS in equilibrium with atropisomer 1 (major atropisomer) at ambient temperature after 24 hours. In organic solvents, at ambient temperature after 24 hours, approximately 1-2% of atropisomer 2 is detected by ^1H NMR and LC-MS in equilibrium with atropisomer 1. Although detectable by ^1H NMR and LC-MS analysis, atropisomer 2 is not isolable.

| Compound | CT Scan assessment (PTCL-NOS) | Other assessments: Abnormal T cells (PTCL-NOS) | CT Scan assessment: Tumor decrease (AITL; Patient 1, AITL) | PET Scan (response) (AITL; Patient 1, AITL) | CT Scan assessment: Tumor decrease (AITL; Patient 2, AITL) | atropisomer 2 (minor atropisomer) detected in equilibrium with atropisomer 1 ([1]; aqueous solutions) | atropisomer 2 (minor atropisomer) detected in equilibrium with atropisomer 1 ([1]; organic solvents) |
| --- | --- | --- | --- | --- | --- | --- | --- |
| C[C@H](NC(=O)CCC(F)(F)F)C(=O)N[C@@H]1C(=O)N(CCO)c2ncccc2-c2ccccc21 [4,4,4-trifluoro-N-[(1S)-2-[[(7S)-5-(2-hydroxyethyl)-6-oxo-7H-pyrido[2,3-d][3]benzazepin-7-yl]amino]-1-methyl-2-oxo-ethyl]butanamide hydrate] | Stable | Decrease of | of 80% | Partial | of 20% | – | – |
| C[C@H](NC(=O)CCC(F)(F)F)C(=O)N[C@@H]1C(=O)N(CCO)c2ncccc2-c2ccccc21 [Compound 1, 4,4,4-trifluoro-N-[(1S)-2-[[(7S)-5-(2-hydroxyethyl)-6-oxo-7H-pyrido[2,3-d][3]benzazepin-7-yl]amino]-1-methyl-2-oxo-ethyl]butanamide] | – | – | – | – | – | 8-9% | 1-2% |

Source: patent US11376259B2, “Targeted treatment of mature T-cell lymphoma” (Eli Lilly and Company, priority 2016, dated 2022)
